# Measured values: patent publication EP0051084A1, “Substituted 1H-1,2,4-triazoles” (AMERICAN CYANAMID COMPANY, priority 1980, dated 1982)
# System: Adjuvant induced experimental polyarthritis
# Experiment: Adjuvant Arthritis Assay
# Assay type: in vivo, Royal Hart Wistar strain rats
# Design: key: Active: If the mean RSA of all three tests is less than 0.753, the compound is considered active
# Settings: rats, 50 mg./kg. orally once daily on days 0 through 13 post-challenge; injected paw measured on 14th day; RSA = treated/control
# From the text: Adjuvant induced experimental polyarthritis is a specific systemic disease of the rat which shares interesting similarities with rheumatoid arthritis. Specifically, the histology of the two diseases bears a remarkable resemblence as shown by C. M. Pearson, et al, Am. J. Path., 42, 73 (1963). E. M. Glenn, Am. J. Vet. Res., 27, (116), 339 (1966) has classified adjuvant induced polyarthritis as a crippling and permanent deformity resulting from diffuse connective tissue involvement around certain susceptible joints in the rat. Zahiri, et al., Can. Med. Ass. J., 101, 269 (1969) have shown that the fusiform swelling of the distal joints is associated with edema, congestion and synovitis including pannus formation, all of which precede the ultimate destruction of bone and cartilage. Furthermore, Zahiri, et al., indicate that the cartilage destruction in the joint is due to an invasive pannus which originates in the marginal synovium and extends across the articular surface to erode it. […] The most pointed reference showing the relationship between arthritis and joint deterioration is "An X-Ray Analysis of Adjuvant Arthritis in the Rat; the Effect of Prednisolone and Indomethacin", Blackham, et al., Agents and Action, 7 (No. 1), 145-151 (1977). In a similar manner, inhibition of the progress of arhtritis in paws of rats treated with the compounds of this invention also lessens associated joint deterioration.
# Groups of three Royal Hart Wistar strain rats, weighing 200 + 10 g. each were injected intradermally in the right hind paw with Freund's adjuvant (dried human tubercle bacilli in a mineral oil vehicle) at a dose of 2 mg./kg. of body weight. Test compounds were administered orally in a 1.5% starch vehicle at 50 mg./kg. of body weight once daily on days 0 through 13 post-challenge. Control rats were treated in a similar manner, buty given only starch vehicle. On the l4th day post-challenge the diameter of the injected paw (primary lesion) was measured by micrometer caliper. From these measurements of inflamed paws a determination was made of the relative surface area (RSA). This is a ratio of the mean surface area of the paws of 3 treated rats/mean surface area of the paws of 60 control rats. If the RSA is equal to or less than 0.76, the compound is retested. After the second test, the mean RSA for the rat paws from both tests is calculated and if it is equal to or less than 0.736 the compound is tested a third time. If the mean RSA of all three tests is less than 0.753, the compound is considered active.
row,SMILES,Result (relative surface area (RSA) of injected paw)
1,"Nc1ccc(-c2ncnn2-c2ccccc2F)cc1 [5-(p-Aminophenyl)-l-(o-fluorophenyl)-lH-l,2,4-triazole]",Active
2,"O=[N+]([O-])c1ccc(-n2ncnc2-c2ccc(F)cc2)cc1 [5-(p-Fluorophenyl)-1-(p-nitrophenyl)-1H-1,2,4-triazole]",Active
3,"O=[N+]([O-])c1ccc(-c2ncnn2-c2ccc(Br)cc2)cc1 [1-(p-Bromophenyl)-5-(p-nitrophenyl)-1H-1,2,4-triazole]",Active
4,"Nc1ccc(-c2ncnn2-c2ccc(Cl)cc2)cc1 [5-(p-Aminophenyl)-1-(p-chlorophenyl)-1H-1,2,4-triazole]",Active
5,"Nc1ccc(-c2ncnn2-c2ccc(Br)cc2)cc1 [5-(p-Aminophenyl)-l-(p-bromophenyl)-lH-l,2,4-triazole]",Active
6,N#CCC(=O)Nc1ccc(-c2ncnn2-c2ccc(F)cc2)cc1,Active
7,"O=[N+]([O-])c1ccc(-c2ncnn2-c2ccc(F)cc2)cc1 [1-(p-Fluorophenyl)-5-(p-nitrophenyl)-1H-1,2,4-triazole]",Active
8,"O=[N+]([O-])c1ccc(-c2ncnn2-c2ccccc2)cc1 [l-Phenyl-5-(p-nitrophenyl)-lH-l,2,4-triazole]",Active
9,"CN(C)C=Nc1ccc(-c2ncnn2-c2ccc(F)cc2)cc1 [1-(p-Fluorophenyl)-5-[p-[(dimethylaminomethylene)-amino]phenyl]-1H-1,2,4-triazole]",Active
10,"Nc1ccc(-c2ncnn2-c2ccc(F)cc2)cc1 [5-(p-Aminophenyl)-1-(p-fluorophenyl)-1H-1,2,4-triazole]",Active
11,"Nc1ccc(-n2ncnc2-c2ccc(F)cc2)cc1 [1-(p-AminopUhenyl)-5-(p-fluorophenyl)-1H-1,2,4-triazole]",Active

# System: migration of macrophages
# Experiment: Migratory Inhibition Test (capillary tube migration assay for MIF inhibitors)
# Assay type: cell-based, Male Hartley guinea pigs
# Design: key: Active: Greater than 15% reversal of inhibition, c-b/a-b
# Settings: Dose 10 mcg./ml.; guinea pig peritoneal cells, 37°C. for 24 hours
# From the text: Migratory Inhibition Test
# Rheumatoid arthritis is a chronic inflammatory disease that is characterized by the migration of lymphocytes, macrophages and polymorphonuclear leukocytes to the sites of inflammation. The migration of lymphocytes and macrophages and their multiplication in situ is one reason for the very large increase in size of the normally thin synovial membrane which encloses the joint space. This transformed synovial membrane slowly grows over the articular surfaces and causes the destruction of the articular cartilage and other connective tissue structures of the joint. One of the mechanisms for the destruction of articular cartilage by the synovium is through the release of various hydrolytic enzymes by the resident macrophages which have been immobilized and activated by migration inhibitory factor (MIF). Macrophages stimulated by MIF are termed "activated macrophages" and undergo the following changes: (a) increased glucose oxidation, (b) increased ruffling of plasma membrane and increased spreading of cells, (c) synthesis and secretion of neutral proteases, (d) release of preformed lysosomal enzymes, (e) decreased migration from a capillary tube. […] The mechanism of cartilage destruction can be pictured as follows: [formula]
# Drugs that can therefore block the release of MIF by lymphocytes or the activation of macrophages by MIF may be clinically effective in retarding the destructive joint damage which occurs in rheumatoid arthritis. Drugs can be tested as MIF inhibitors by using the capillary tube migration assay as follows: Male Hartley guinea pigs, weighing between 300 and 600 grams, were injected intraperitoneally with 25 ml. of Marcal 52 Oil@ (Humble Oil Co.). Three to four days later the guinea pigs were decapitated, the peritoneum opened and 50 ml. of cold Hank's solution added to the peritoneum. The Hank's solution containing the cell suspension was then aspirated into a separatory funnel. This procedure was repeated twice. […] Viability of the cells was then determined using trypan blue. […]
row,SMILES,Result (reversal of antigen inhibition of macrophage migration)
1,"O=[N+]([O-])c1ccc(-c2ncnn2-c2ccc(Br)cc2)cc1 [1-(p-Bromophenyl)-5-(p-nitrophenyl)-1H-1,2,4-triazole]",Active
2,"Nc1ccc(-c2ncnn2-c2ccc(Br)cc2)cc1 [5-(p-Aminophenyl)-l-(p-bromophenyl)-lH-l,2,4-triazole]",Active
3,"c1ccc(-n2ncnc2-c2ccncc2)cc1 [4-(1-Phenyl-1H-1,2,4-triazol-5-yl)pyridine]",Active

# System: carrageenin inflamed feet
# Experiment: Carrageenin Edema Assay
# Assay type: in vivo, Royal Hart, Wistar strain rats
# Design: key: Active: If the mean ratio of test 1 and 2 is equal to or greater than 1.43, the compound is considered active
# Settings: rats, 250 mg./kg. by gavage; measured 5 hours after drug administration (4 hours after carrageenin challenge)
# Procedure: Royal Hart, Wistar strain rats ranging in weight from 80 to 90 grams were used. The rats were fasted overnight prior to dosing but had free access to water. The test compounds were administered in aqueous suspension, by gavage, in a volume of 1.7 ml. per 50 grams of rat [corresponds to hydration volume used by Winter, et al., Proc. Soc. Exp. Biol. & Med., Ill, 544-547 (1962)]. The dose of all compounds was 250 mg./kq. The phlogistic agent used was carrageenin prepared as a sterile 1% suspension in 0.9% aqueous sodium chloride for routine testing. A volume of 0.05 ml. was injected into the plantar tissue of the right hind paw. Measurements were made 5 hours after drug administration (4 hours after carrageenin challenge). The paw of the unanesthetized rat was immersed in mercury exactly to an ink mark on the skin over the lateral malleolus. The mercury was contained in a glass cylinder 25 x 60 mm. The mercury column was connected with a Statham pressure transducer (model P23BB), range 0-5 cm. mercury. The output from the transducer was led through a model 260BLH signal conditioning unit and visualized by digital indicator. Volumes of both the normal and carrageenin inflamed feet were determined. The difference between the two measurements was considered to be the increased edema due to the carrageenin administration. Results were expressed as a control (C)/treated (T) efficacy ratio. (The ratio of mean edema volume of 8 control rats over the mean edema volume of 2 treated rats.) If the C/T ratio is equal to or greater than 1.41, the test is repeated. If the mean ratio of test 1 and 2 is equal to or greater than 1.43, the compound is considered active. The results of this test with typical compounds of this invention are recorded in Table
row,SMILES,Result (control (C)/treated (T) efficacy ratio of edema volume)
1,"Fc1ccc(-n2ncnc2-c2ccncc2)cc1 [4-[1-(p-Fluorophenyl)-1H-1,2,4-triazol-5-yl]pyridine]",Active
2,"Clc1ccc(-n2ncnc2-c2cnccn2)cc1 [2-fl-(p-Chlorophenyl)-lH-1,2,4-triazol-5-yllpyrazine]",Active
3,"COc1cc(-c2nc(C)nn2-c2ccc(Br)cc2)cc(OC)c1OC [1-(p-Bromophenyl)-3-methyl-5-(3,4,5- -trimethoxyphenyl)-lH-1,2,4-triazole]",Active
4,"O=S(=O)(c1ccc(-n2ncnc2-c2cnccn2)cc1)C(F)F [{1-[p-(Difluoromethylsulfonyl)phenyl]-1H-1,2,4--triazol-5-yl}pyrazine]",Active
5,"c1cncc(-c2nnc[nH]2)c1 [3-(4H-1,2,4-Triazol-3-yl)-pyridine]",Active
6,"c1ccc(-c2ncnn2-c2ccccc2)cc1 [1,5-Diphenyl-1H-1,2,4-triazole, 1,5-Diphenyl-lH-1,2,4-triazole]",Active
7,"O=[N+]([O-])c1ccc(-n2ncnc2-c2cnccn2)cc1 [(1-(p-Nitrophenyl)-1H-1,2,4-triazol-5-yl]pyrazine]",Active
8,"c1ccc(-n2ncnc2-c2ccncc2)cc1 [4-(1-Phenyl-1H-1,2,4-triazol-5-yl)pyridine]",Active
